We go through 8 molecules from patent US7378246B2, “Methods and compositions for regulating adipogenesis” (The Board of Trustees of the Leland Stanford Junior …, priority 2002, dated 2008).

Common to all, as to type: cell-based
One experiment has as its system PPARγ2. Briefly: PPARγ2 mRNA expression in L1 cells, Northern blotting. The conditions noted are these: for PPARγ2 expression in L1 cells with ectopic expression: retroviral infection, RNA on Day 2 after IDM stimulation (FIG. 7B); for PPARγ2 expression in L1 cells: 50 μM CoCl2 or 100 μM DFO during induction (FIG. 3C). On the procedure:
Total cellular RNA was isolated with Trizol reagent (Life Technologies). The following plasmids were used for cDNA template preparations by restriction digest: MSV-C/EBPβ and MSV-C/EBPδ (S. L. McKnight, Univ. Texas Southwestern Medical Center, Dallas, Tex.), pSVsport-PPARγ2 (B. M. Spiegelman), pBS-Stra13 (P. Chambon, INSERM, Strasbourg, France). Hybridization was carried out at 65° C. for 6 to 12 hr. The radioactive blot was visualized on Storm 860 PhosphoImager (Molecular Dynamics, Sunnyvale, Calif.).

Another experiment has as its system 3T3-L1 preadipocytes. Briefly: Adipocyte differentiation of 3T3-L1 (L1) cells, Oil Red O staining. The conditions noted are these: for adipocyte differentiation of L1 cells on retroviral overexpression: retroviral infection, vs vector control pLXSN, stained Day 5 (FIG. 7A); for differentiation of C/EBPβ-expressing L1 cells: agent present for first 2 days of adipogenic induction, 50 μM CoCl2 or 100 μM DFO (FIG. 4B); for differentiation and/or fat accumulation of C/EBPβ-expressing L1 cells: continuous presence (6 days), 50 μM CoCl2 or 100 μM DFO, 20% O2 (FIG. 4B); for differentiation of PPARγ2-expressing L1 cells: stimulated by rosiglitazone, 50 μM CoCl2 or 100 μM DFO for 6 days (FIG. 4C). As to the method:
Based on previously described procedure (Wu et al., 1996), L1 cells were maintained in GM for 2 days after confluence. The confluent cells were treated (day 0) with differentiation medium (DM) containing 10% FBS, 10 μg/ml INS, 1 μM DEX and 0.5 mM MIX in DMEM for 2 days. Cells were then maintained in DMEM containing 10% FBS and 1 μg/ml INS, and the medium was replaced every other day.
(§1) To evaluate the effects of hypoxia on adipogenesis, cells were maintained at 20% O2 in standard incubator, 2% O2 in standard incubator or 0.01% O2 in an anaerobic chamber immediately following treatment with DM. Alternatively, CoCl2 or DFO was added to DM at indicated concentrations either during the initial stage of stimulation or for the entire course of differentiation.
(§2) For visualization of differentiated adipocytes, cells were washed with phosphate-buffered saline (PBS) and stained in 60% of the Oil Red O stock solution (0.5 g Oil Red O in 100 ml of isopropanol) for 30 min at 37° C. Cells were briefly washed in 60% isopropanol and then rinsed in distilled water for microscopic observation and photography.
Retroviruses were produced using the phoenix cell system (Baker et al., 1992; Pear et al., 1993). L1 cells at 30-50% confluence were retrovirally infected 2-3 times with 8 μg/ml Polybrene by centrifugation at 1800-2000 rpm for 1 hr, followed by overnight incubation at 32° C. For generation of stable C/EBPβ-expressing cells, L1 cells were infected with pBABEpuro or pBABEpuro-C/EBPβ (S. R. Farmer, Boston University, Boston, Mass.), followed by selection with 1 μg/ml of puromycin (Sigma). The stable cells were grown to confluence and induced to differentiate as described above. For transient infection with pBABEpuro, pBABEpuor-PPARγ2 (B. M. Spiegelman, Harvard University, Boston, Mass.), pLXSN/HA-DEC1, pLXSN-DEC1 and pLXSN-N1, L1 cells were spin-infected and induced to differentiate as described above.

For the next experiment, the system named is PPARγ2 promoter. As to the kind of experiment: PPARγ2 promoter luciferase reporter assay in NIH-3T3 cells. The conditions noted are these: for repression of PPARγ2 promoter activity by DEC1 fragments: 0.6-kb PPARγ2 promoter luciferase, co-transfected DEC1 fragments, 0.3 μg DNA each (FIG. 6A). As to the method:
The luciferase reporter construct pX2) under the control of the −603 to +62 PPARγ2 proximal promoter fragment (PPAR) or other deletional subclones was used as described (Tong et al., 2000). NIH-3T3 cells were transiently co-transfected with 0.3 μg each of pXP2 or PPAR and pcDNA3.1His construct expressing a DEC1 fragment using LipofectAmine Plus reagents (Life Technologies). Luciferase activities in cell lysates were measured in triplicates after 40-48 hr of incubation using Monolight 2010 Luminometer (Analytical Luminescence Laboratory, Ann Arbor, Mich.). The luciferase activity is expressed in relation to protein concentrations that vary little from well to well. Alternatively, a Renilla luciferase reporter was co-transfected as a control for transfection efficiency.
A general note: In a reporter assay the amount or activity of a reporter protein is the signal.

In experiment [1] the test system is Mouse embryonic fibroblast (MEF) cells. Briefly: Adipocyte differentiation of MEFs, Oil Red O staining. The conditions noted are these: for adipogenesis of MEF cells: DM with 5 μM rosiglitazone, CoCl2 25 μM or DFO 25 μM, stained Day 6 (FIG. 1C); for adipocyte differentiation of control-treated MEF cells: control adenovirus, same conditions as cre-treated MEFs (FIG. 2); for adipocyte differentiation of HIF-1α deficient MEF cells: cre-treated MEFs, CoCl2 up to 50 μM, DFO up to 25 μM, entire course (FIG. 2). On the procedure:
MEFs were induced to differentiate 2 days after confluence (day 0) with DM supplemented with 5 μM rosiglitazone (Alexander et al., 1998; Lehmann et al., 1995). The medium was replaced on Day 3 with DMEM plus 10% FBS, 1 μg/ml INS and 5 μM rosiglitazone, and was then changed every other day. To remove the HIF-1α gene, subconfluent culture of MEFs with HIF-1α alleles flanked by loxP sites were treated with adenovirus containing cre recombinase or control adenovirus at the multiplicity of infection (MOI) of 50 as previously described (Seagroves et al., 2001). The treated MEF cells were grown to confluence for 2 days before they were induced to differentiate as above.
as §1, §2

Where [2] appears, read: agent for first 2 days of induction with IDM, CoCl2 50 μM, DFO 100 μM, stained Day 6 (FIG. 1B).
The mark [3] stands for this setting: agent in treatment media throughout the course of induction (6 days).

Counter-ions that a name gives are not always drawn.

On to “DEC1: full-length DEC1 bHLH transcription repressor, expressed from pcDNA3.1-DEC1 or pLXSN-DEC1”, for which, in the experiment with PPARγ2, the “PPARγ2 expression in L1 cells with ectopic expression” value is “repressed”. The “adipocyte differentiation of L1 cells on retroviral overexpression” value (from here on “adipocyte differentiation of L1 cells”) in the experiment on 3T3-L1 preadipocytes is listed as “nearly complete inhibition of adipocyte differentiation”. Besides, the “repression of PPARγ2 promoter activity” value with PPARγ2 promoter (0.6-kb PPARγ2 promoter (−603 to +62) luciferase, compared to the vector control, co-transfection (FIG. 6A)) worked out at 70%. Besides, the “repression of FLΔBrS promoter (BrS deleted)” value in the experiment on PPARγ2 promoter (0.6-kb promoter with BsrGI-StuI fragment deleted (FIG. 6B)) is “no longer repressed”.
For the molecule “HA-DEC1: HA-tagged full-length DEC1 expressed from pLXSN/HA-DEC1”, the “PPARγ2 expression in L1 cells with ectopic expression” value in the experiment with PPARγ2 is reported as “repressed”. Also, the “adipocyte differentiation of L1 cells” value in the experiment with 3T3-L1 preadipocytes is on record as “nearly complete inhibition of adipocyte differentiation”.
Turning to `CN(CCOc1ccc(CC2SC(=O)NC2=O)cc1)c1ccccn1` (centres unmarked) [rosiglitazone], in experiment [1] (IDM supplemented with 5 μM rosiglitazone), the “MEF cells that differentiate into adipocytes” value is listed as 15-20%.
For `CC(=O)N(O)CCCCCNC(=O)CCC(=O)N(O)CCCCCNC(=O)CCC(=O)N(O)CCCCCN` [DFO, deferoxamine mesylate], in experiment [1], the “adipogenesis of MEF cells” value was “suppresses adipogenesis”, the “adipocyte differentiation of control-treated MEF cells” value is “significantly represses differentiation” and the “adipocyte differentiation of HIF-1α deficient MEF cells” value is “continue to undergo significant adipocyte differentiation”. The “PPARγ2 expression in L1 cells” value in the experiment on PPARγ2 is reported as “repressed”. Moreover, the L1 cell differentiation result in the experiment on 3T3-L1 preadipocytes (setting [2]) is listed as “sufficient to prevent L1 cell differentiation”. Besides, the L1 cell differentiation entry with 3T3-L1 preadipocytes (setting [3]) was “Inhibition of L1 cell differentiation”. Also, in the experiment on 3T3-L1 preadipocytes, the “differentiation of C/EBPβ-expressing L1 cells” value was “still able to differentiate into fat-laden adipocytes”, the “differentiation and/or fat accumulation of C/EBPβ-expressing L1 cells” value is given as “significantly reducing differentiation and/or fat accumulation” and the “differentiation of PPARγ2-expressing L1 cells” value is recorded as “majority of the PPARγ2-expressing cells differentiate into adipocytes”.
With `[Cl][Co][Cl]` [CoCl2, Cobalt Chloride], in experiment [1], the “adipogenesis of MEF cells” value is given as “suppresses adipogenesis”, the “adipocyte differentiation of control-treated MEF cells” value is reported as “significantly represses differentiation” and the “adipocyte differentiation of HIF-1α deficient MEF cells” value was “continue to undergo significant adipocyte differentiation”. In addition, the “PPARγ2 expression in L1 cells” value in the experiment with PPARγ2 is “repressed”. Also, in the experiment with 3T3-L1 preadipocytes (setting [2]), the L1 cell differentiation result was “sufficient to prevent L1 cell differentiation”. Moreover, the L1 cell differentiation entry in the experiment with 3T3-L1 preadipocytes (setting [3]) is on record as “Inhibition of L1 cell differentiation”. In the experiment with 3T3-L1 preadipocytes, the “differentiation of C/EBPβ-expressing L1 cells” value was “still able to differentiate into fat-laden adipocytes”, the “differentiation and/or fat accumulation of C/EBPβ-expressing L1 cells” value is listed as “significantly reducing differentiation and/or fat accumulation” and the “differentiation of PPARγ2-expressing L1 cells” value was “majority of the PPARγ2-expressing cells differentiate into adipocytes”.

B1: C1: C-terminal DEC1 fragment aa121-412 (protein, UniProt O14503 121-412, looked up, fragment)
chain: LQSGLQAGELSGRNVETGQEMFCSGFQTCAREVLQYLAKHENTRDLKSSQLVTHLHRVVSELLQGGTSRKPSDPAPKVMDFKEKPSSPAKGSEGPGKNCVPVIQRTFAHSSGEQSGSDTDTDSGYGGESEKGDLRSEQPCFKSDHGRRFTMGERIGAIKQESEEPPTKKNRMQLSDDEGHFTSSDLISSPFLGPHPHQPPFCLPFYLIPPSATAYLPMLEKCWYPTSVPVLYPGLNASAAALSSFMNPDKISAPLLMPQRLPSPLPAHPSVDSSVLLQALKPIPPLNLETKD
Take B1: in the experiment with PPARγ2 promoter, the “repression of PPARγ2 promoter activity by DEC1 fragments” value is given as “do not inhibit PPARγ2 promoter activity”.

B2: C2: C-terminal DEC1 fragment aa201-412 (protein, UniProt O14503 201-412, looked up, fragment)
chain: FKEKPSSPAKGSEGPGKNCVPVIQRTFAHSSGEQSGSDTDTDSGYGGESEKGDLRSEQPCFKSDHGRRFTMGERIGAIKQESEEPPTKKNRMQLSDDEGHFTSSDLISSPFLGPHPHQPPFCLPFYLIPPSATAYLPMLEKCWYPTSVPVLYPGLNASAAALSSFMNPDKISAPLLMPQRLPSPLPAHPSVDSSVLLQALKPIPPLNLETKD
On to B2, for which the “repression of PPARγ2 promoter activity by DEC1 fragments” value in the experiment with PPARγ2 promoter is “do not inhibit PPARγ2 promoter activity”.

B3: N1: N-terminal DEC1 fragment aa1-141 containing the bHLH domain (protein, UniProt O14503 1-141, looked up, fragment)
chain: MERIPSAQPPPACLPKAPGLEHGDLPGMYPAHMYQVYKSRRGIKRSEDSKETYKLPHRLIEKKRRDRINECIAQLKDLLPEHLKLTTLGHLEKAVVLELTLKHVKALTNLIDQQQQKIIALQSGLQAGELSGRNVETGQEM
For the molecule B3, the “PPARγ2 expression in L1 cells with ectopic expression” value in the experiment with PPARγ2 is recorded as “repressed”. Further, the “adipocyte differentiation of L1 cells” value in the experiment with 3T3-L1 preadipocytes is reported as “Significant inhibition”.
